Residue numbers refer to the chain shown, from its start. Marks after values point to notes of the source that are not given here.
Experiments:
Type in all cases: cell-based
MAS [1] = target: T1, MAS (Homo sapiens, UniProt P04201); experiment: FLIPR calcium assay, induced myc-tagged WT MAS HEK293 stable cell line
T1 construct: expressed in transfected cells
T1 sequence (P04201 1-325): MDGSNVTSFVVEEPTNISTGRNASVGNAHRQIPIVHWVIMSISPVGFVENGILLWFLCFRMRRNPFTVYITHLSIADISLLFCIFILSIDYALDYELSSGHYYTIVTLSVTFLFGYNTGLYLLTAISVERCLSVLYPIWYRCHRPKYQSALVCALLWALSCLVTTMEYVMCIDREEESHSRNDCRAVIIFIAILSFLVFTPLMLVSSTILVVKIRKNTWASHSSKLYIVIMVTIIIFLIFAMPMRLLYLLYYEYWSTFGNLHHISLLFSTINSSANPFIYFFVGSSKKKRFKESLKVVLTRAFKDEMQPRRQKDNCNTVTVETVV
Description: The assay was performed using FLIPR Calcium 5 assay kit (Molecular Devices, Sunnyvale, CA). For calcium measurements, cells at a density of 125,000 cells/well in 100 µl medium were seeded onto a 96-well clear bottom black cell culture plate that was pre-coated with poly-L-lysine. In the calcium assays the cell density of 125,000 cells/well was consistently maintained to minimize variability between independent experiments. The cells were seeded in induction media to induce MAS expression or in complete media for negative controls. The plate was maintained in a cell culture incubator for 26–28 h. The cells were then serum starved for 2 h by replacing the medium with 100 µl of serum free DMEM. In the case of pre-treatment with pan-inhibitor of G protein signaling, BIM-46187, the cells were initially serum starved for 1 h by replacing the medium with 50 µl of serum free DMEM. After 1 h, 50 µl of BIM-46187 was added to the cells to a final concentration of 25 µM and treated for another 1 h. Following serum starvation, 100 µl of calcium sensitive dye along with 2x (2.5 mM final concentration) probenecid (Life Technologies, Grand Island, NY) was added to the cells. During this step, AR-inverse agonist or BIM-46187 was also added at desired concentrations to the calcium dye preparation in case of experiments where cells were pre-treated with these inhibitors. The cells were maintained for one hour in the cell culture incubator. Following this, the 96-well plate containing cells loaded with calcium dye and a U-bottom 96-well plate containing ligands at 5x the desired final concentration in D-PBS (1.47 mM KH2PO4, 138 mM NaCl, 2.67 mM KCl, 8.1 mM Na2HPO4, pH 7.3) were allowed to equilibrate for 15 min on a FlexStation 3 instrument (Molecular Devices, Sunnyvale, CA) at 37°C. The plates were further equilibrated on the instrument for 5 min with the lids removed from the plates. The instrument was programmed in FLEX mode to add ligands (50 µl at 5x concentration) to the cells and to monitor the fluorescence before and after adding the ligands. In re-stimulation and antagonism assays the instrument is programmed to add 35 µl of first ligand followed by addition of the second ligand (35 µl) after 10 min. […] Therefore, when using 5x ligand stock the maximum AR-agonist concentration that could be tested was 10 µM.
In the calcium assays, the maximum response and minimum response values in relative fluorescence units (RFU) were extracted by subtracting the corresponding baseline value wherein baseline is defined as the average fluorescence of all time points before addition of ligand.
(§3) The kinetic parameter t1/2 (time taken to reach half of the maximum response) was determined using SoftMax Pro software supplied with the FlexStation 3 instrument (Molecular Devices, Sunnyvale, CA).
For re-stimulation assays, the data is expressed as the percentage of maximum agonist stimulation to allow for ready comparison between individual experiments. […] For all the assays, the EC50 and IC50 values were estimated by fitting the data to a three parameter dose response using GraphPad Prism software (GraphPad, La Jolla, CA).

MAS [2] = target: T1, MAS; experiment: HTRF IP1 assay, induced myc-tagged WT MAS HEK293 stable cell line
Description: IP1 levels in the cells were measured using the IP-One Tb kit (Cisbio US, Bedford, MA). For the assay, cells were seeded onto a 384-well low volume white cell culture plate at a density of 25,000 cells/well in 20 µl of induction or complete medium. In the IP1 assays the cell density of 25,000 cells/well was consistently maintained to minimize variability between independent experiments. The cells were maintained in a cell culture incubator for 26–28 h. The cells were then serum starved for 2 h by replacing the medium with 7 µl of serum free DMEM/F-12. During this step, 7 µl of serum free DMEM/F-12 was also added to the wells to which IP1 standards would be subsequently added. […] The cells were then placed in the cell culture incubator for 4 h. Later, 3 µl each of d2-labeled IP1 and anti-IP1 cryptate Tb conjugated antibody diluted in lysis buffer was added sequentially to all the wells and the plate was incubated overnight in the dark at room temperature. Time-resolved ratiometric fluorescence emission measurements at 665 nm and 620 nm were taken after excitation at 343 nm on FlexStation 3 instrument.
For the IP1 assay, a standard curve was generated using the 4-Parameter logistic equation fit of the HTRF readings of IP1 standards using the SoftMax Pro software. The IP1 concentrations in the experiments were extrapolated based on the standard curve parameters. […] For all the assays, the EC50 and IC50 values were estimated by fitting the data to a three parameter dose response using GraphPad Prism software (GraphPad, La Jolla, CA).

MAS F112A mutant = target: T2, MAS F112A mutant (Homo sapiens, UniProt P04201, F112A); experiment: IP1 assay, F112A MAS mutant stable cell line
T2 construct: expressed in transfected cells
T2 sequence (P04201 1-325 F112A): T1 sequence (P04201 1-325) with F112A
Description: (§1) The WT MAS expression construct was synthesized with an N-terminal myc-tag (Figure 1) by GenScript (Piscataway, NJ). The myc-tagged WT MAS from this vector was initially sub-cloned into pcDNA3.1 and later sub-cloned into tetracycline/doxycycline inducible vector pcDNA 5/TO (Life Technologies, Grand Island, NY). Four different ligand binding MAS mutants (F112A, I191A, M244A and T270A) were created using site-directed mutagenesis of WT myc-tagged MAS in pcDNA3.1 or pcDNA 5/TO vector background (Agilent Technologies, Santa Clara, CA). WT MAS receptor without an epitope tag was constructed by replacing the 5′ portion of the myc-tagged WT MAS in pcDNA 5/TO by untagged MAS sequence from a plasmid construct provided as a gift from Arena Pharmaceuticals, Inc. (San Diego, CA). The sequences of all WT and mutant MAS genes in plasmid constructs were verified by capillary DNA sequencing at the Genomics Core at Lerner Research Institute (Cleveland, OH).
IP1 levels in the cells were measured using the IP-One Tb kit (Cisbio US, Bedford, MA). For the assay, cells were seeded onto a 384-well low volume white cell culture plate at a density of 25,000 cells/well in 20 µl of induction or complete medium. In the IP1 assays the cell density of 25,000 cells/well was consistently maintained to minimize variability between independent experiments. The cells were maintained in a cell culture incubator for 26–28 h. […] Time-resolved ratiometric fluorescence emission measurements at 665 nm and 620 nm were taken after excitation at 343 nm on FlexStation 3 instrument. […]
(§2) For re-stimulation assays, the data is expressed as the percentage of maximum agonist stimulation to allow for ready comparison between individual experiments. For the IP1 assay, a standard curve was generated using the 4-Parameter logistic equation fit of the HTRF readings of IP1 standards using the SoftMax Pro software. […] In the luciferase assay, the luminescence measurements (RLU) are presented as a ratio of firefly to renilla luciferase activity. […]

MAS I191A mutant = target: T3, MAS I191A mutant (Homo sapiens, UniProt P04201, I191A); experiment: IP1 assay, I191A MAS mutant stable cell line
T3 construct: expressed in transfected cells
T3 sequence (P04201 1-325 I191A): T1 sequence (P04201 1-325) with I191A
Description: as §1
IP1 levels in the cells were measured using the IP-One Tb kit (Cisbio US, Bedford, MA). For the assay, cells were seeded onto a 384-well low volume white cell culture plate at a density of 25,000 cells/well in 20 µl of induction or complete medium. In the IP1 assays the cell density of 25,000 cells/well was consistently maintained to minimize variability between independent experiments. The cells were maintained in a cell culture incubator for 26–28 h. The cells were then serum starved for 2 h by replacing the medium with 7 µl of serum free DMEM/F-12. During this step, 7 µl of serum free DMEM/F-12 was also added to the wells to which IP1 standards would be subsequently added. Following serum starvation, 7 µl of ligands and serially diluted IP1-standards prepared at 2x concentration in stimulation buffer (10 mM Hepes, 1 mM CaCl2, 0.5 mM MgCl2, 4.2 mM KCl, 146 mM NaCl, 5.5 mM glucose, 50 mM LiCl, pH 7.4) were added to the appropriate wells. The cells were then placed in the cell culture incubator for 4 h. Later, 3 µl each of d2-labeled IP1 and anti-IP1 cryptate Tb conjugated antibody diluted in lysis buffer was added sequentially to all the wells and the plate was incubated overnight in the dark at room temperature. Time-resolved ratiometric fluorescence emission measurements at 665 nm and 620 nm were taken after excitation at 343 nm on FlexStation 3 instrument. […]
as §2

MAS T270A mutant = target: T4, MAS T270A mutant (Homo sapiens, UniProt P04201, T270A); experiment: Calcium assay, T270A MAS mutant stable cell line
T4 construct: expressed in transfected cells
T4 sequence (P04201 1-325 T270A): T1 sequence (P04201 1-325) with T270A
Description: The assay was performed using FLIPR Calcium 5 assay kit (Molecular Devices, Sunnyvale, CA). For calcium measurements, cells at a density of 125,000 cells/well in 100 µl medium were seeded onto a 96-well clear bottom black cell culture plate that was pre-coated with poly-L-lysine. In the calcium assays the cell density of 125,000 cells/well was consistently maintained to minimize variability between independent experiments. The cells were seeded in induction media to induce MAS expression or in complete media for negative controls. The plate was maintained in a cell culture incubator for 26–28 h. The cells were then serum starved for 2 h by replacing the medium with 100 µl of serum free DMEM. In the case of pre-treatment with pan-inhibitor of G protein signaling, BIM-46187, the cells were initially serum starved for 1 h by replacing the medium with 50 µl of serum free DMEM. After 1 h, 50 µl of BIM-46187 was added to the cells to a final concentration of 25 µM and treated for another 1 h. Following serum starvation, 100 µl of calcium sensitive dye along with 2x (2.5 mM final concentration) probenecid (Life Technologies, Grand Island, NY) was added to the cells. During this step, AR-inverse agonist or BIM-46187 was also added at desired concentrations to the calcium dye preparation in case of experiments where cells were pre-treated with these inhibitors. The cells were maintained for one hour in the cell culture incubator. […] The instrument was programmed in FLEX mode to add ligands (50 µl at 5x concentration) to the cells and to monitor the fluorescence before and after adding the ligands. […]
as §3
For re-stimulation assays, the data is expressed as the percentage of maximum agonist stimulation to allow for ready comparison between individual experiments. […]

[3] = WT MAS, induced cells, inhibition of constitutive activity

SMILES | t1/2 (time taken to reach half of the maximal calcium response), Calcium assay (MAS [1]; WT MAS) [s] | EC50 (MAS [1]; WT MAS, induced cells) [µM] | Fold over WT, EC50 Calcium assay (MAS [1]; WT construct) | EC50 (MAS [2]; WT MAS, induced cells) [µM] | Fold over WT, EC50 IP1 assay (MAS [2]; WT construct) | EC50, IP1 assay (MAS F112A mutant) | EC50 (MAS I191A mutant) [µM] | Fold over WT, EC50 IP1 assay (MAS I191A mutant) | EC50, Calcium assay (MAS T270A mutant) | t1/2, Calcium assay (MAS T270A mutant) [s] | IC50 (MAS [1]; [3]) [µM] | IC50 (MAS [2]; [3]) [µM] | Fold over WT, IC50 IP1 assay (MAS [2]; WT construct) | Fold over WT, IC50 IP1 assay (MAS F112A mutant) | IC50 (MAS F112A mutant) [µM] | Fold over WT, IC50 IP1 assay (MAS I191A mutant) | IC50 (MAS I191A mutant) [µM]
COc1cc([N+](=O)[O-])ccc1S(=O)(=O)N1CC(CN2CCN(c3ccccn3)CC2)C(c2cccc(F)c2)C1 (centres unmarked) [AR-agonist] | 31.2 ± 2.1 | 1.5 ± 0.3 | 1 | 1.3 ± 0.3 | 1 | cbd | 2.4 ± 1.1 | 1.8 | cbd | 40.0 ± 1.2 | – | – | – | – | – | – | –
C=CCCN1CCC2(CC1)CN(C(=O)c1c(F)cccc1F)c1ccc(Cl)cc12 [AR-inverse] | – | – | – | – | – | – | – | – | – | – | 0.9 ± 0.6 | 0.7 ± 0.1 | 1 | 3** | 2.1 ± 0.4 | 1.3 | 0.9 ± 0.1

Reference: PMC4113456, “Atypical Signaling and Functional Desensitization Response of MAS Receptor to Peptide Ligands” (PLoS ONE, 2014)
